Test results: article PMC8151276, “An Integrated Approach toward NanoBRET Tracers for Analysis of GPCR Ligand Engagement” (Molecules, 2021)

Legend:
Type in all cases: binding
GALR2 = biological target: T1, GALR2 (Homo sapiens, UniProt O43603); assay: NanoBRET screen HiBiT-GALR2 in HEK293; conditions: GALR2
T1 construct: purchased Promega (in-house HiBiT-GPCR construct library, NanoBRET)
T1 sequence (O43603 1-387): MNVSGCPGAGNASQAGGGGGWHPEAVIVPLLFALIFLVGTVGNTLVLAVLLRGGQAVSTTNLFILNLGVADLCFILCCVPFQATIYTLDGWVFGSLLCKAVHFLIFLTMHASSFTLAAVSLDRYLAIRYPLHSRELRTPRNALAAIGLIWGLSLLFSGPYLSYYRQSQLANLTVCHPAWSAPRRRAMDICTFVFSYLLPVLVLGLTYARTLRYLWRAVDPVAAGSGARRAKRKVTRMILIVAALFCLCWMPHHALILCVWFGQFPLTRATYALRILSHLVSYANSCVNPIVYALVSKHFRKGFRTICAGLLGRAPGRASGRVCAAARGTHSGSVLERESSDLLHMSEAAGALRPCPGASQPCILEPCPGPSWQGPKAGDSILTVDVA
Procedure: (§1) Each tracer candidate was screened across the entire library of HiBiT-GPCR constructs using NanoBRET as the detection modality. As depicted in Figure 4A, the specificity of interactions was evaluated through decrease in BRET due to competitive displacement of a bound tracer by excess parental compound. Each tracer was analyzed for binding to each HiBiT-GPCR fusion in the absence and in the presence of competing parental compound. Briefly, HEK293 cells were transfected with HiBiT-GPCR constructs diluted into promoterless DNA to reduce expression and maximize translocation to the cell surface. Each tracer candidate was then screened at concentrations of 1 μM and 0.1 μM across cells expressing these fusions. Cells were treated for 1.5 h with tracer either alone or in the presence of 20 μM competing parental compound (i.e., control). BRET was measured upon addition of purified LgBiT and subsequent complementation with HiBiT genetically fused to a GPCR. The specificity of interactions was assessed through a decrease in BRET signal due to competitive displacement of the bound tracer. To further gauge the robustness of these interactions, the fold response over the control (i.e., BRETtracer/BRETcontrol) was calculated. We chose a 1.5-fold response, which translates to ≥7-fold signal over noise as the minimal threshold required to score an interaction as positive. […]. Below we highlight the screening results obtained for our exemplary fluorescent tracers based on Clozapine, Amitriptyline and AZD1283.
(§2) HiBiT-GPCR DNA constructs were diluted in 10 mM Tris pH 8 to a final concentration of 0.01 μg/μL, arrayed in 96-well plates and stored at −20 °C. For transfection, HEK293 cells were suspended in Opti-MEM (without phenol red) supplemented with 2% fetal bovine serum (Seradigm) and 100 units/mL penicillin–streptomycin (Gibco) at a final concentration of 220,000 cells/mL and dispensed into white 96-well plates at 90 μL/well. Subsequent transfections and screens were carried using an Agilent Bravo Automated Liquid Handling Platform. First, the 96-well HiBiT DNA arrays were diluted 25-fold in Opti-MEM (without serum or phenol red) to a final concentration of 0.0004 μg/μL and 20 μL of the diluted DNAs were transferred into new 96-well plates. Next, promoterless carrier DNA (1 μg/μL) was diluted 25-fold (0.04 μg/μL) and then dispensed into the diluted arrays at 20 μL/well. Following brief mixing, Viafect transfection reagent (Promega) diluted 16-fold into Opti-MEM was dispensed into the plates at 40 μL/well. After mixing by pipetting, plates were incubated for 10 min on the pipetting station deck. The DNA-transfection reagent complexes were then added to plates containing cells. To facilitate the screen, 10 μL of DNA-transfection reagent complexes were added in duplicates to the top 4 and bottom 4 rows, resulting in two identical 48-well arrays per plate. Plates with transfected cells were incubated for 18–20 h at 37 °C/5% CO2. A screen of each tracer across the entire library using two different concentrations requires duplicate plates of transfected cells. Depending on the number of tracers being screened, transfections can be scaled up using the same ratios. The next day, for each tracer, four 20× screening solutions in tracer dilution buffer (Promega) were prepared: two duplicates at final concentration of 20 μM and two duplicates at a final concentration of 2 μM. A competing unmodified compound was added to one of each duplicate at a final concentration of 400 μM. The four resulting solutions were diluted 4-fold in Opti-MEM without serum or phenol red to generate 5× solutions (5 µM and 0.5 µM tracer +/− 100 μM competing compound). To screen the library, a BioTek MultiFlo FX liquid dispenser was used to dispense 22.5 µL of tracer solution to the top 4 rows and 22.5 µL tracer + competing compound solution to the 4 bottom rows. Plates were briefly mixed on an orbital shaker and incubated for 1.5 h at room temperature. […]

PTGER2 = biological target: T2, PTGER2 (Homo sapiens, UniProt P43116); assay: NanoBRET screen HiBiT-PTGER2 in HEK293; conditions: PTGER2
T2 construct: purchased Promega (in-house HiBiT-GPCR construct library, NanoBRET)
Procedure: as §1, §2

GRM4 = biological target: T3, GRM4 (Homo sapiens, UniProt Q14833); assay: NanoBRET screen HiBiT-GRM4 in HEK293; conditions: GRM4
T3 construct: purchased Promega (in-house HiBiT-GPCR construct library, NanoBRET)
Procedure: as §1, §2

CCR5 = biological target: T4, CCR5 (Homo sapiens, UniProt P51681); assay: NanoBRET screen HiBiT-CCR5 in HEK293; conditions: CCR5
T4 construct: purchased Promega (in-house HiBiT-GPCR construct library, NanoBRET)
Procedure: as §1, §2

T3 sequence (Q14833 33-912): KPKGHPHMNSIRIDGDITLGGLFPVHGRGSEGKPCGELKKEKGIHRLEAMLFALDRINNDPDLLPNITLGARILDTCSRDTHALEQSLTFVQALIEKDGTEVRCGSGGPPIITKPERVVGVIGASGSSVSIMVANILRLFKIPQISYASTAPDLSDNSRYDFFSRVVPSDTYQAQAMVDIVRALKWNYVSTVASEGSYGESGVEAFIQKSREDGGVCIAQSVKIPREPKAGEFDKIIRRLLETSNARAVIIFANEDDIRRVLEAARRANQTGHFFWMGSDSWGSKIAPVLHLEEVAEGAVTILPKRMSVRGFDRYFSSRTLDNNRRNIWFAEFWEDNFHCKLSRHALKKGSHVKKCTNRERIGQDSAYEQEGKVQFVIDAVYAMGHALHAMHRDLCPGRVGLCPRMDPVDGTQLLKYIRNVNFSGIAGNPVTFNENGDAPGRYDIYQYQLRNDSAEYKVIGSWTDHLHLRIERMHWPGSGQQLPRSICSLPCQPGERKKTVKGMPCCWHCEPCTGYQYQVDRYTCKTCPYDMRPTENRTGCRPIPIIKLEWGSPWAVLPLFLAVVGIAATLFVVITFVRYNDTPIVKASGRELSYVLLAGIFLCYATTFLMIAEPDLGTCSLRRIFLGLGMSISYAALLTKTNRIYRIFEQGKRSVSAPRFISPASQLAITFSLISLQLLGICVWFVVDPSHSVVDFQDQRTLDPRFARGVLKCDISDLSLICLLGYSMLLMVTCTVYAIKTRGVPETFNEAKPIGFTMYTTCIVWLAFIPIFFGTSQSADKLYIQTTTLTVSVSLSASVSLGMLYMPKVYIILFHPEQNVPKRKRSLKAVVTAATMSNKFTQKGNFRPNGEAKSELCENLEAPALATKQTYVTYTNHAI
T4 sequence (P51681 whole entry): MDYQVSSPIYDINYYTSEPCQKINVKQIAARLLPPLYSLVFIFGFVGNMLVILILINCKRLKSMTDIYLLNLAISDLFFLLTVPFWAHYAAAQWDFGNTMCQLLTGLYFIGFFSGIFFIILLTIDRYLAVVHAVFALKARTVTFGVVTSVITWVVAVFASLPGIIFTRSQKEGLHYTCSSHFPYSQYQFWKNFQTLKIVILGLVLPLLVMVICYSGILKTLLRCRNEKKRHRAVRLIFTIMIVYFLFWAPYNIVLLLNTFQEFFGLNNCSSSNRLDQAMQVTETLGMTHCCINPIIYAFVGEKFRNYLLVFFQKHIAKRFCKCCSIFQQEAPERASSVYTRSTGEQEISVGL
T2 sequence (P43116 whole entry): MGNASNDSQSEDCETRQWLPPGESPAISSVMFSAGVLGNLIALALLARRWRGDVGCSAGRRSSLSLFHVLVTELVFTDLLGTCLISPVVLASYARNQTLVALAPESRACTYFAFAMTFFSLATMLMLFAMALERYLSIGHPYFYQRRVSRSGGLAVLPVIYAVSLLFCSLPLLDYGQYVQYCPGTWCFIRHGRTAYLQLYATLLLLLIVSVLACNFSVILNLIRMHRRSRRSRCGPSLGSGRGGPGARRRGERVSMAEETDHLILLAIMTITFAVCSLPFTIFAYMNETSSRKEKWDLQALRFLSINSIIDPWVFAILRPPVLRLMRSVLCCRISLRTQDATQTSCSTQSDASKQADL

SMILES	NanoBRET Fold Response (GALR2; tracer 0.1μM)	NanoBRET Fold Response (GALR2; tracer 1μM)	NanoBRET Fold Response (PTGER2; tracer 0.1μM)	NanoBRET Fold Response (PTGER2; tracer 1μM)	NanoBRET Fold Response (GRM4; tracer 0.1μM)	NanoBRET Fold Response (GRM4; tracer 1μM)	NanoBRET Fold Response (CCR5; tracer 0.1μM)	NanoBRET Fold Response (CCR5; tracer 1μM)	NanoBRET Fold Response (GALR2; 0.1μM)	NanoBRET Fold Response (GALR2; 1μM)	NanoBRET Fold Response (PTGER2; 0.1μM)	NanoBRET Fold Response (PTGER2; 1μM)	NanoBRET Fold Response (GRM4; 0.1μM)	NanoBRET Fold Response (GRM4; 1μM)	NanoBRET Fold Response (CCR5; 0.1μM)	NanoBRET Fold Response (CCR5; 1μM)
O=C(CCc1ccc2n1[B-](F)(F)[N+]1=C(c3ccc[nH]3)C=CC1=C2)NCc1ccc(C(=O)NCCOCCC(=O)N[C@@H]2CC[C@@]3(O)[C@H]4Cc5ccc(O)c6c5[C@@]3(CCN4CC3CC3)[C@H]2O6)cc1 [Naltrexone-3-NB590]	1.00	0.98	1.04	1.00	0.75	1.05	1.21	1.11	–	–	–	–	–	–	–	–
Cc1cc2c(s1)Nc1ccccc1N=C2N1CCN(CCCNC(=O)CCOCCOCCOCCOCCNC(=O)CCc2ccc3n2[B-](F)(F)[N+]2=C(c4ccc[nH]4)C=CC2=C3)CC1 [Olanzapine-a-2-NB590]	0.96	1.07	1.03	0.98	0.99	0.93	1.00	0.89	–	–	–	–	–	–	–	–
O=C(CCc1ccc2n1[B-](F)(F)[N+]1=C(c3ccc[nH]3)C=CC1=C2)NCc1ccc(C(=O)NCCOCCOCCNCC(O)COc2cccc3ccccc23)cc1 (stereo not shown) [Propranolol-3-NB590]	–	–	–	–	–	–	–	–	1.00	0.99	1.00	1.02	1.11	1.04	1.09	0.96
O=C(CCc1ccc2n1[B-](F)(F)[N+]1=C(c3ccc[nH]3)C=CC1=C2)NCCOCCOCCNC(=O)OCCOCCN1CCN(C2=Nc3ccccc3Sc3ccccc32)CC1 [Quetiapine-a-2-NB590]	1.01	0.83	0.96	1.05	0.99	0.92	0.95	0.85	–	–	–	–	–	–	–	–
Cc1nc2n(c(=O)c1CCN1CCC(c3noc4cc(F)ccc34)CC1)CCCC2OC(=O)NCCOCCOCCOCCOCCNC(=O)CCc1ccc2n1[B-](F)(F)[N+]1=C(c3ccc[nH]3)C=CC1=C2 (stereo not shown) [Risperidone-2-NB590]	1.03	0.97	1.01	1.05	0.98	1.05	0.96	0.90	–	–	–	–	–	–	–	–
CC(C)N(CC[C@H](c1ccccc1)c1cc(CCNC(=O)CCOCCOCCOCCOCCNC(=O)CCc2ccc3n2[B-](F)(F)[N+]2=C(c4ccc[nH]4)C=CC2=C3)ccc1O)C(C)C [Tolterodine-2-NB590]	0.97	1.09	1.00	1.01	0.97	1.14	1.03	1.01	–	–	–	–	–	–	–	–
CC(C)N(CC[C@H](c1ccccc1)c1cc(CCNC(=O)c2ccc(CNC(=O)CCc3ccc4n3[B-](F)(F)[N+]3=C(c5ccc[nH]5)C=CC3=C4)cc2)ccc1O)C(C)C [Tolterodine-BZ-NB590]	0.99	1.08	1.04	0.97	1.02	0.99	1.09	0.97	–	–	–	–	–	–	–	–
CCCn1c(=O)c2[nH]c(-c3ccc(OCC(=O)NCCNC(=O)CCOCCNC(=O)c4ccc(CNC(=O)CCc5ccc6n5[B-](F)(F)[N+]5=C(c7ccc[nH]7)C=CC5=C6)cc4)cc3)nc2n(CCC)c1=O [XAC-3-NB590]	1.07	0.96	1.04	1.09	1.03	1.07	0.83	0.86	–	–	–	–	–	–	–	–
